Test results from PMC6079014, “Calcium is an essential cofactor for metal efflux by the ferroportin transporter family” (Nature Communications, 2018).

How the values were obtained:
human Fpn Q99A = target: T1, human Fpn Q99A (Homo sapiens, UniProt Q9NP59, Q99A); assay: 55Fe efflux assay in Xenopus oocytes expressing Q99A mutant human Fpn; format: cell-based; conditions: fit by Eq. (2), ± SEM, read-out: K0.5Ca, half-maximal extracellular Ca2+ concentration for stimulation of 55Fe efflux
T1 construct: expressed in transfected cells; host or cells: Xenopus laevis oocytes injected with mutant Fpn RNA (pOX(+) vector)
T1 sequence (Q9NP59 1-571 Q99A): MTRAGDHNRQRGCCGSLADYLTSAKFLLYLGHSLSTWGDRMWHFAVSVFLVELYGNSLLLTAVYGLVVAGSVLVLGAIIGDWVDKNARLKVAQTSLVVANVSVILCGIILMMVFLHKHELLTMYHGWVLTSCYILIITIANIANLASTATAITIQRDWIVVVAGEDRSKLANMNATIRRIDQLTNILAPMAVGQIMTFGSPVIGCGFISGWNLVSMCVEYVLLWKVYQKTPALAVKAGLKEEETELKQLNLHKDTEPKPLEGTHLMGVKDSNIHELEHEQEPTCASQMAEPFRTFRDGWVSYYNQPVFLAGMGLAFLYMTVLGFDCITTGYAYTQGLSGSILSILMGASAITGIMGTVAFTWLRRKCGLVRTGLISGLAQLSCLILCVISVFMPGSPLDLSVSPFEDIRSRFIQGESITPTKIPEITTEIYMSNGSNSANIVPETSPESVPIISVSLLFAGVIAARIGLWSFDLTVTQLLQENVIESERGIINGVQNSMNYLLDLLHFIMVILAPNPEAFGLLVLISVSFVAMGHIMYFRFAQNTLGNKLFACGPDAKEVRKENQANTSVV
Method: We performed laparotomy and ovariectomy on adult female Xenopus laevis frogs (Nasco, Fort Atkinson, WI) under 2-aminoethylbenzoate methanesulfonate anesthesia (0.2%, by immersion, to effect) following a protocol approved by the University of Cincinnati Institutional Animal Care and Use Committee. Ovarian tissue was isolated and treated for 3 h with […] collagenase A (Roche Diagnostics Corp., Indianapolis, IN) in calcium-free-modified Barths’ medium (MBM) of composition 88 mM NaCl, 1 mM KCl, 2.4 mM NaHCO3, 1.57 mM MgSO4, 0.66 mM NaNO3, 10 mM 4-(2-hydroxyethyl)-1-piperazineethanesulfonic acid (HEPES), buffered to pH 7.5 by using 2-amino-2-hydroxymethyl-propane-1,3-diol (Tris base). […]
We measured metal efflux from oocytes expressing Fpn by using a radiotracer assay. […]
To initiate the efflux assay, we placed oocytes in standard efflux medium of composition 100 mM NaCl, 1 mM KCl, 2 mM CaCl2, 1 mM MgCl2, 0.5 mM bathophenanthroline disulfonic acid (BPS), 1 mM nitrilotriacetic acid (NTA) trisodium salt, 50 μg/ml apotransferrin (ApoTf) (R&D Systems Inc., Minneapolis, MN), buffered with 0–5 mM MES, and 0–5 mM N′,N′-diethylpiperazine to obtain pH 7.5, with the following exceptions. […] The corresponding oocytes were rinsed twice in ice-cold medium (without BPS), solubilized with 5% (w/v) sodium dodecyl sulfate, and counted (Nt). […]

BbFpn E203A = BbFpn E203A (Bdellovibrio bacteriovorus, UniProt Q6MLJ0, E203A); assay: Isothermal titration calorimetry, E203A BbFpn; format: binding, Bdellovibrio bacteriovorous
Chain of BbFpn E203A (Q6MLJ0 whole entry E203A): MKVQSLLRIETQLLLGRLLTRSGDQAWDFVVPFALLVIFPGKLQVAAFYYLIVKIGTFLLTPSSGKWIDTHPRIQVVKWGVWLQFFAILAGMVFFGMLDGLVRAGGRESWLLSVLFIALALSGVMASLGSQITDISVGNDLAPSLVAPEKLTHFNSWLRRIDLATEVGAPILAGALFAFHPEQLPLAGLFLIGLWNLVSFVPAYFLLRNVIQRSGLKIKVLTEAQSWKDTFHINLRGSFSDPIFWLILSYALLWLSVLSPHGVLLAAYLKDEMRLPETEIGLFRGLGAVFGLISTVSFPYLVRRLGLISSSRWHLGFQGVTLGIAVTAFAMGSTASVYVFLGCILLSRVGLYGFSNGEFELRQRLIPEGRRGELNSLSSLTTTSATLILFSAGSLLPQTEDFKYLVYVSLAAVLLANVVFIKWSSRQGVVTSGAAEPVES

With [Ca+2] [Ca^2+, calcium] the EC50 (human Fpn Q99A) was 2400 µM and the “Binding to E203A BbFpn by ITC (in words)” value (BbFpn E203A) was “complete loss”.
